{"source": "paper PMC5656594", "about": "(Scientific Reports, 2017)", "key": {"S217K IN^PFV-DNA complex [1]": {"biological_target": "T1, S217K IN^PFV-DNA complex (Human spumaretrovirus, UniProt P14350, G968K/S969G)", "T1 construct": "The pET-IN-PFV plasmid containing the full-length IN gene was used for mutagenesis; His; made in house; host or cells: E. coli BL21-CodonPlus (DE3)-RIPL", "assay": "DTG fluorescence anisotropy binding assay, S217K mutant", "set-up": "species or system prototype foamy virus (PFV)", "conditions": "10 mM Mg2+, DTG 0.6 μM, [IN]=[DNA]=2.4 μM", "protocol": "(§1) The fluorescence intensity was monitored as a function of (IN + DNA) and plotted as a function of the binary IN-DNA complex concentration (measured as explained in Fig. 2E legend). […] (B) The percentage of ternary complexes was calculated using DTG fluorescence enhancement. […] The graphs in panels A-B show representative data of three independent experiments. […] \"DTG\" is taken from the y-axis title of the same panel.\n(§2) To note, Mg^2+ is dispensable for the overall DNA-binding step of IN[32],[43]–[45] and thus, the loss of Mg^2+ chelation is not contradictory with results showing that catalytic mutants bind equally well to DNA and in a similar manner than wt IN (Supplementary Fig. S6). However, G187R cannot be considered as a catalytic mutant since it sustains a significant ST activity although weak (≈10% of the wt activity; Fig. 6).\n(§3) Fluorescence excitation and emission spectra of INSTIs were recorded on a Eclipse (Varian) spectrofluorimeter equipped with two polarizers for anisotropy measurements and a thermostated cell holder, using 80 µl solutions placed in micro cells (Hellma). […] The steady-state fluorescence anisotropy was calculated using: r = (IVV–G x IVH)/(IVV + 2GxIVH) where IVV and IVH correspond to vertical and horizontal components, respectively, when the sample is excited with vertically polarized light. […]"}, "[2]": {"biological_target": "T2, PFV IN complexed with various DNA sequences (Human spumaretrovirus, UniProt P14350)", "T2 construct": "The full-length wt IN^PFV, the three single mutants of the catalytic triad; His; made in house; host or cells: E. coli BL21-CodonPlus (DE3)-RIPL", "assay": "DTG binding to IN complexed with various DNA sequences, fluorescence intensity procedure", "set-up": "species or system prototype foamy virus (PFV)", "conditions": "for DTG-binding (%) Fluorescence intensity procedure: normalized by DNA#1, [IN]=[DNA]=1.8 μM, [DTG]=0.3 μM, 1 mM Mg2+", "protocol": "All experiments were performed in the presence of 1 mM Mg^2+ (see Supplementary Fig. S4 for [Mg^2+] = 10 mM). λex = 345 nm and PMT = 980 V (Δλex = Δλem = 5 nm). […] Contributions of Raman and Rayleigh scattering were eliminated in the inset spectrum: (viii) = (iv)–(vii) where (vii) represents the proper spectrum of Mg^2+-DTG in the context of the binary IN-DNA complex. […] [Mg^2+] = 1 mM. Inset: fluorescence intensity (375–385 nm) as a function of (IN + DNA). The arrows indicate the intensity level after addition of 500 mM NaCl. Emission spectra are representative of 3 independent experiments for each condition of (IN + DNA). […] (E) Measurement of the binary IN-DNA complex formation. The formation of binary complexes was performed by monitoring the fluorescence anisotropy (r) of DNA (Fl-PFV^CAAT) under similar experimental conditions of the DTG-binding assay (panels C-D). Top, varying stoichiometric concentrations of IN and DNA were mixed and the r parameter was monitored. A constant concentration of Fl-DNA (0.3 μM) was maintained throughout the titration. […] Bottom, corresponding percentages of binary complexes as a function of (IN + DNA): % = (r–r0)/(rmax–r0)x100 where r0 and rmax correspond to anisotropy values of free DNA and IN-bound DNA, respectively. (F) Linear relationship between the percentages of ternary and binary complexes. […]\n(§4) Fluorescence excitation and emission spectra of INSTIs were recorded on a Eclipse (Varian) spectrofluorimeter equipped with two polarizers for anisotropy measurements and a thermostated cell holder, using 80 µl solutions placed in micro cells (Hellma). Drug, IN and DNA concentrations, excitation/emission slit settings as well as the photomultiplier tube (PMT) voltage are specified in figure legends. The intensity value was corrected from the inner filter effect. The steady-state fluorescence anisotropy was calculated using: r = (IVV–G x IVH)/(IVV + 2GxIVH) where IVV and IVH correspond to vertical and horizontal components, respectively, when the sample is excited with vertically polarized light. G represents the correction factor for the difference in the monochromator transmission between // and ⊥ polarized components: G = IHV/IHH. All experiments were performed at 25 °C in buffer A: 20 mM Tris pH 7.2, 50 mM NaCl, 1 mM DTT and 10% (v/v) DMSO."}, "S217K IN^PFV-DNA complex [3]": {"biological_target": "T1, S217K IN^PFV-DNA complex", "assay": "Fluorescence enhancement DTG-binding assay, S217K mutant", "set-up": "species or system prototype foamy virus (PFV)", "conditions": "DTG 0.3 μM, 1 mM Mg2+", "protocol": "The fluorescence intensity was monitored as a function of (IN + DNA) and plotted as a function of the binary IN-DNA complex concentration (measured as explained in Fig. 2E legend). […] The graphs in panels A-B show representative data of three independent experiments.\nas §4"}, "S217H IN^PFV mutant": {"tested_on": "S217H IN^PFV mutant", "conditions": "S217H versus wt; cited from earlier work"}, "G187R IN^PFV-DNA complex": {"biological_target": "T3, G187R IN^PFV-DNA complex (Human spumaretrovirus, UniProt P14350, G938R/G968S/S969G)", "T3 construct": "The pET-IN-PFV plasmid containing the full-length IN gene was used for mutagenesis; His; made in house; host or cells: E. coli BL21-CodonPlus (DE3)-RIPL", "assay": "DTG fluorescence anisotropy binding assay, G187R mutant", "set-up": "species or system prototype foamy virus (PFV)", "conditions": "10 mM Mg2+, DTG 0.6 μM, [IN]=[DNA]=2.4 μM", "protocol": "as §1, §2, §3"}}}
{"smiles": "C[C@@H]1CCO[C@H]2Cn3cc(C(=O)NCc4ccc(F)cc4F)c(=O)c(O)c3C(=O)N12", "note": "[DTG, dolutegravir]", "values": [{"measurement": "DTG binding to S217K by DTG anisotropy", "setting": "S217K IN^PFV-DNA complex [1]", "result": "DTG-binding defects"}, {"measurement": "DTG-binding (%) Fluorescence intensity procedure", "setting": "[2]; DNA#1 (cognate)", "result": 100, "unit": "%"}, {"measurement": "DTG-binding (%) Fluorescence intensity procedure", "setting": "[2]; DNA#2", "result": "83 ± 5", "unit": "%"}, {"measurement": "DTG-binding (%) Fluorescence intensity procedure", "setting": "[2]; DNA#3", "result": "89 ± 6", "unit": "%"}, {"measurement": "DTG-binding (%) Fluorescence intensity procedure", "setting": "[2]; DNA#4", "result": "84 ± 4", "unit": "%"}, {"measurement": "DTG-binding (%) Fluorescence intensity procedure", "setting": "[2]; DNA#5", "result": "101 ± 5", "unit": "%"}, {"measurement": "DTG-binding (%) Fluorescence intensity procedure", "setting": "[2]; DNA#6", "result": "76 ± 5", "unit": "%"}, {"measurement": "DTG-binding (%) Fluorescence intensity procedure", "setting": "[2]; DNA#7", "result": "20 ± 3", "unit": "%"}, {"measurement": "DTG-binding (%) Fluorescence intensity procedure", "setting": "[2]; DNA#8", "result": "7 ± 2", "unit": "%"}, {"measurement": "DTG-binding (%) Fluorescence intensity procedure", "setting": "[2]; DNA#9 (random sequence)", "result": "9 ± 2", "unit": "%"}, {"measurement": "DTG-binding (%) Fluorescence intensity procedure", "setting": "[2]; DNA#10", "result": "23 ± 3", "unit": "%"}, {"measurement": "DTG-binding (%) Fluorescence intensity procedure", "setting": "[2]; DNA#11", "result": "24 ± 2", "unit": "%"}, {"measurement": "DTG binding activity, % of the binding activity obtained with DNA#1", "setting": "[2]; DNA#12 (CAAT-3′→CAGT-3′), both procedures (text summary of Table 1)", "result": "72–77%"}, {"measurement": "DTG-binding (%) Fluorescence intensity procedure", "setting": "[2]; DNA#12", "result": "72 ± 6", "unit": "%"}, {"measurement": "DTG-binding (%) Fluorescence intensity procedure", "setting": "[2]; DNA#13 (processed DNA product)", "result": "66 ± 4", "unit": "%"}, {"measurement": "DTG binding activity, % of the binding activity obtained with DNA#1", "setting": "[2]; IN in complex with DNA#2→6 (text summary of Table 1)", "result": "> 76", "unit": "%"}, {"measurement": "DTG binding to S217K", "setting": "S217K IN^PFV-DNA complex [3]", "result": "No binding"}, {"measurement": "decrease in DTG susceptibility", "setting": "S217H IN^PFV mutant", "result": "2–3 fold"}, {"measurement": "DTG binding to G187R by DTG anisotropy", "setting": "G187R IN^PFV-DNA complex", "result": "DTG-binding defects"}]}
